Laboratory results reported in paper PMC11513842, “Development of an orally bioavailable CDK12/13 degrader and induction of synthetic lethality with AKT pathway inhibition” (Cell Reports Medicine, 2024).
Like-named read-outs stand apart in the source and are kept apart here.

Key:
[1] = system: VCaP cells; assay: Cell viability assay (CellTiter-Glo, 5 days); format: cell-based, human
Description: Cells were seeded in 96-well plates and incubated at 37°C with 5% CO2 overnight. A series of compound dilutions were added into the cells. After 5 days incubation, cell proliferation was tested using the CellTiter-Glo assay (Promega) according to the manufacturer’s protocol. Luminescence was measured using the Infinite M1000 Pro plate reader (Tecan). Data analysis was conducted using GraphPad Prism software.

[2] = system: CDK12 and CDK13; details: VCaP cells
Description: After treatment of varying conditions, cell lysates were prepared using RIPA buffer (ThermoFisher Scientific) supplemented with cOmplete protease inhibitor cocktail tablets (Sigma-Aldrich). The Pierce BCA Protein Assay Kit ([…]) was used to determine the protein concentrations. Proteins with an equal amount from each sample were loaded on NuPAGE 3–8% Tris-Acetate or 4–12% Bis-Tris protein gels (ThermoFisher Scientific) and subsequently transferred to membranes, which were blocked using 5% nonfat milk. Following blocking at room temperature for 1 h, the membrane was further incubated with varying primary antibodies at 4°C overnight. HRP-conjugated secondary antibodies were used for detection, and membrane imaging was conducted using an Odyssey Fc Imager (LI-COR Biosciences).

[3] = Pharmacokinetic profile in Sprague Dawley rats; format: in vivo, rat; details: SD rats
[4] = system: castrated VCaP xenograft (VCaP-CRPC); assay: VCaP castration-resistant prostate cancer xenograft efficacy; format: in vivo, mouse; details: castrated VCaP xenograft, 31 days; YJ1206 p.o. 100 mg/kg 3x/week, uprosertib p.o. 15 mg/kg 5x/week
Description: (§1) Six-week-old male CB17SCID mice obtained from Charles River (Stock # 236), were used to establish subcutaneous tumors on both dorsal flanks. Tumor dimensions were measured biweekly using digital calipers, applying the formula (π/6) (L × W^2), where L and W represent tumor length and width, respectively. At the study conclusion, mice were euthanized, and tumors were excised and weighed. The University of Michigan Institutional Animal Care and Use Committee (IACUC) approved all in vivo studies.
(§2) For the VCaP castration-resistant tumor model, 3×10^6 VCaP cells were subcutaneously injected into both dorsal flanks of mice using a serum-free medium mixed with 50% Matrigel (BD Biosciences). Upon tumors reaching palpable size (∼200 mm^3), animals underwent castration. When tumors regrew to their pre-castration size, mice were randomized for treatment with 30 mg/kg YJ9069 or vehicle via intravenous injection or 100 mg/kg YJ1206 or vehicle, […]

[5] = system: PC310 PDX; assay: PC310 patient-derived xenograft efficacy; format: in vivo, mouse; details: YJ1206 p.o. 100 mg/kg 3x/week, uprosertib p.o. 15 mg/kg 5x/week
Description: as §1
WA74 PDX model was developed at the University of Michigan during collection of a rapid autopsy case as part of the Michigan Legacy Tissue Program (MLTP). PC310 PDX model was obtained from Erasmus Medical Center, Rotterdam, the Netherlands. Both PDX lines were propagated in male CB17SCID mice by surgically implanting 2 mm^3 tumor fragments, coated with 100% Matrigel, into both flanks of mice. When tumors reached approximately 200 mm^3, mice were randomized into treatment groups. These groups received either 30 mg/kg YJ9069 via intravenous injection or 100 mg/kg YJ1206 by oral gavage, both administered three times per week, with or without 15 mg/kg uprosertib by oral gavage five days per week for 3–4 weeks. In accordance with IACUC guidelines, the maximum tumor size was limited to 2.0 cm in any dimension, and mice were euthanized if xenografts reached this endpoint.

[6] = system: castrated VCaP and 22Rv1 CDX models; assay: Castrated VCaP and 22Rv1 CDX models, combination efficacy; format: in vivo, mouse; details: YJ1206 p.o. 100 mg/kg 3x/week, uprosertib p.o. 15 mg/kg 5x/week
Description: as §1
as §2, with “vehicle, with or without 15 mg/kg uprosertib by oral gavage.” for “vehicle,”
For the 22Rv1 castration-resistant tumor model, mice underwent castration and then 12 days of recovery. Subsequently, 1 × 10^6 22Rv1 cells were subcutaneously injected into both dorsal flanks using a serum-free medium with 50% Matrigel (BD Biosciences). […]

[7] = VCaP cell viability, linker optimization, Figure S4B, read-out: VCaP IC50

With `O=C1CCC(N2C(=O)c3ccc(C=CC(=O)N4CCN(c5ccc(N(C(=O)NCc6ccccc6)C6CCC(Nc7ncc8ccccc8n7)CC6)cc5)CC4)cc3C2=O)C(=O)N1` (centres unmarked) [YJ1114] the IC50 [1, 7] was 2020 nM and the “CDK12/13 degradation (immunoblot)” value [2] was “significantly decreased CDK12/13 degradation and cell viability”.

With `O=C1CCC(N2C(=O)c3ccc(-c4cccc(C(=O)N5CCN(c6ccc(N(C(=O)NCc7ccccc7)C7CCC(Nc8ncc9ccccc9n8)CC7)cc6)CC5)c4)cc3C2=O)C(=O)N1` (centres unmarked) [YJ1130] the IC50 [1, 7] was 126 nM and the “CDK12/13 degradation (immunoblot)” value [2] was “significantly decreased CDK12/13 degradation and cell viability”.

For `O=C1CCC(N2C(=O)c3ccc(N4CCC(N5CCN(c6ccc(N(C(=O)NCc7ccccc7)C7CCC(Nc8ncc9ccccc9n8)CC7)cn6)CC5)CC4)cc3C2=O)C(=O)N1` (centres unmarked) [YJ1205], the “CDK12/13 degradation (immunoblot)” value [2] was “potent degradation effects”, the “AUC(0-)” value ([3]; i.v. 2.5 mg/kg) was 10615.68 ng·h/mL and the “AUC(0-t)” value ([3]; i.v. 2.5 mg/kg) was 10519.6 ng·h/mL. The CL ([3]; i.v. 2.5 mg/kg) was 3.9307 mL/min/kg, the Cmax ([3]; i.v. 2.5 mg/kg) was 4140 nM and the T1/2 ([3]; i.v. 2.5 mg/kg) was 3.81 h. The Tmax ([3]; i.v. 2.5 mg/kg) was 0.08 h, the “AUC(0-)” value ([3]; oral 10 mg/kg) was 6842.8 ng·h/mL and the “AUC(0-t)” value ([3]; oral 10 mg/kg) was 6679.0 ng·h/mL. For the same compound, the Cmax ([3]; oral 10 mg/kg) was 660 nM, the T1/2 ([3]; oral 10 mg/kg) was 4.2 h and the Tmax ([3]; oral 10 mg/kg) was 4.7 h.

With `O=C(NCc1ccccc1)N(c1ccc(N2CCNCC2)cc1)[C@H]1CC[C@H](Nc2ncc3ccccc3n2)CC1` [YJ9068] the IC50 ([1]; VCaP cells, 5 days, Figure S1E, read-out: IC50) was 1080 nM and the “CDK12/13 degradation (immunoblot)” value [2] was “did not affect target protein levels”.

With `O=C1CCC(N2C(=O)c3ccccc3C2=O)C(=O)N1` (centres unmarked) [thalidomide, reference compound] the “CDK12/13 degradation (immunoblot)” value [2] was “did not affect target protein levels”.

In the case of `Cn1ncc(Cl)c1-c1cc(C(=O)N[C@H](CN)Cc2ccc(F)c(F)c2)oc1Cl` [uprosertib, reference compound], the “progressive disease (PD), waterfall plot (RECIST)” value [4] is reported as 100%, the “progressive disease (PD), waterfall plot (RECIST)” value [5] is reported as 100% and the tumor growth inhibition [5] is reported as “only moderate or mild tumor inhibition”. The anti-tumor efficacy [6] was “moderate anti-tumor efficacy”.
